Data on 15 compounds can be found in patent US7772260B2, “Imidazo[2,1-b]-1,3,4-thiadiazole sulfonamides” (Aegera Therapeutics Inc., priority 2001, dated 2010).

Several values for one entry are separate records, joined by “and”; a condition that tells them apart may be missing. Equal values may be shown once. Entries after “also recorded” stand apart in the source; their conditions may differ. Where a name gives a salt, the structure may show the parent alone.

Series [1] has as its system SCG neurons. The series is described as follows: Protection of SCG neurons from anti-NGF killing. Format: cell-based, Sprague Dawley rats. Particulars: anti-NGF antibody, serum and NGF free 48 hours, Alamar Blue, +/−1 uM, read-out: IC(50), rescue from anti-NGF killing of SCG neurons. As to the method:
Neurotrophins are critical to the growth, development, and survival of small fiber neurons of the PNS. SCG neurons are neurons of the PNS that undergo apoptosis upon NGF withdrawal. In a typical experiment SCG neurons are cultured in the presence of NGF, which induces survival and neurite out-growth. After 5 days the NGF is removed by either the addition of anti-NGF polyclonal antibody (Sigma) or by repeated washings (4 times) with NGF free media, resulting in the apoptosis of up to 90% of the neurons after 48 hours, as measured by MTS staining.
After 4 days the cells were treated with anti-NGF antibody (Sigma). At this time compound was added and the cells were maintained serum and NGF free for 48 hours, at which time viability was assessed using Alamar Blue (Medicorp) staining.
On the technique in general: Alamar Blue is a resazurin reagent that responds to reducing activity.

Series [2] concerns SCG neurons. The series is described as follows: cells. To be noted: Taxol™ (50 ng/mL), viability 48 hours later, MTS, read-out: IC(50), protection of SCG neurons from Taxol killing. Format: cell-based, Sprague Dawley rats.
Another series has as its target CA II (Homo sapiens, UniProt P00918). The experiment in a line: CA II inhibition. Format: biochemical. Particulars: read-out: IC(50), CA II inhibition. As to the method:
CA II inhabition was measured using the protocol described by Pocker, Y.'Stone, J. Biochemistry 1967, 6, 668.

A further series has as its system sciatic nerve. The series is described as follows: Sciatic nerve crush injury model. It counts as in vivo, Sprague Dawley rats. To be noted: for functional recovery after sciatic nerve crush: 1 and 10 mg/kg. An excerpt: The sciatic nerve crush model is a representative model of axonal repair and regeneration. The sciatic nerve is physically crushed with forceps at the mid-thigh; only the right leg is injured, the left leg serving as a control. The axons die from the crush point to their point of innervation. Functional loss of the axons is rapidly observed as the animals drag their right leg and the toes of the right leg no longer spread. Recovery is observed in approximately 28 days as the animals regain use of their right leg. More quantitative measurements of recovery include toe spread measurements between the digits 1 and 5 and digits 2 and 4, gait analysis and electrical conductivity from the toes to the injury site (see Example 161). Male Sprague Dawley rats were anaesthetized (halothane and buprenorphine) and the right hind leg was blunt dissected to expose the sciatic nerve at mid-thigh. The nerve was crushed twice for a total of 30 seconds using No.7 Dumont jeweller's forceps. The incision is sutured and the animals are allowed to recover for 28 days. Functional recovery was measured by gait, nerve conductance and toe spread measurements between digits 1 and 5 and digits 2 and 4.

The next series deals with cortical neurons. The series is described as follows: Neuroprotection of cortical neurons in the presence of beta-amyloid. It counts as cell-based, Sprague Dawley rats. Particulars: 10 uM compound, 10 uM 25-35 amyloid beta peptide, 48 hour. As to the method: Primary neuronal/glial cortical cultures were established from postnatal day 1 Sprague Dawley rats. Cerbral cortices were isolated and dissociated with 0.25% trypsin for 20 minutes at 37 degrees. The tissue was then triturated in PBS containing 0.1% bovine serum albumin and 0.2 mg/ml DNAse. Cells were plated in poly D-lysine coated 96 well plates at a density of 1e6 cells per mL. Cultures were maintained at 37 degrees in 5% C02/95% air for 2 weeks in Neurobasal (Gibco) supplemented with B27, glutamine, and penicillin/streptomycin. 5ng/mL AraC was added after 48 hours. After 2 weeks cells were exposed to 10 uM 25-35 amyloid beta peptide with and without 10 uM compound 76. After 2 days of treatment apoptotic cells were detected with Cy3-conjugated annexin V (Sigma).

For the next series, the system named is Sprague Dawley rats. Format: in vivo. Particulars: rat, in vivo, 9 mg/kg. As to the method: Taxol™ commonly causes dose dependent peripheral neuropathies during cancer treatment. […] All of the Taxol™ treated animals developed peripheral neuropathies, characterized by ‘tip toe walking’. The extent of this neuropathy was analyzed by quantifying the refracted light captured by a video camera as the animals walked over a glass plate.
Adult Sprague Dawley rats were treated with Taxol™ (IP, 9 mg/kg in Cremophor EL and ethanol) twice weekly for 3 weeks (J. Neuro-Oncology (1999) 41: 107-116). Compound was administered I hour prior to Taxol™ treatment (IP, 1, 5 and 10 mg/kg in hydroxypropyl-β-cyclodextrin). Taxol™ treated control animals were treated with saline solution at the same time of Compound treated animals. Non-treated control animals were treated with saline solution as above. Weight gain was measured every second day, starting at Day 1. Gait analysis was measured by quantifying the refracted light captured by a video camera as the animals walked over a glass plate, 2 days after the final Taxol™ treatment (Physiology and Behavior (1994), 55(4): 723-726; Med. Sci. Res. (1988) 16: 901-902). […] H/M wave recovery was analyzed using standard procedures 2 days after the final Taxol™ treatment (Muscle Nerve (1998) 21: 1405-1413; Annals of Neurology (1998) 43 (1): 46-55).
Male Spraugue Dawley rats were treated with 50% HPDC vehicle (veh/veh), compound I dissolved in 50% HPDC at 1, 5, or 10 mg/kg (veh/1, veh/5, veh/10, respectively), or Taxol™ (9 mg/kg)+compound 1 dissolved in 50% HPDC at 1, 5, and 10 mg/kg (Tax/1, Tax/5, Tax/10) according to the dosing regime described in Example 160. Weight measurements were made ever other day.
Two days after the completion of drug treatments animal walking gait was analyzed according to a) total imprint area, and b) total number of contact points.
FIG. 6 illustrates the effect of Compound 1 on H-reflex amplitude, a measurement of H/M wave disturbance induced by Taxol™. Two days after the completion of drug treatments, the dorsal root ganglia and attached nerves were dissected bilaterally from L4 and L5 and their H/M wave conductance measured.

For series [3], the system named is SCG neurons. The experiment in a line: In vitro protection of SCG neurons from vincristine killing. It counts as cell-based, Sprague Dawley rats. Particulars: vincristine 100 ng/mL. An excerpt: Similarly, vincristine and vinblastine are commonly used anti-tumour agents whose mode of action involve tubulin binding.

With “6-(4-bromophenoxyphenyl)imidazo[2,1-b]-1,3,4-thiadiazole-2-sulfonamide [Compound 95]”, the IC50 is 7 µM in the series on SCG neurons [1] and 3 µM with SCG neurons [2].

For `NS(=O)(=O)c1nn2cc(-c3ccc4c(c3)OCCCO4)nc2s1` [Compound 21, 6-(3,4-dihydro-2H-1,5-benzodioxepin-7-yl)imidazo[2,1-b]-1,3,4-thiadiazole-2-sulfonamide], the IC50 in the series with SCG neurons [1] (Rattus norvegicus, Neuron) was found to be 22 µM; with SCG neurons [2] (Rattus norvegicus, Neuron) it was 7 µM; at CA II, 5.32 µM.

For the compound `NS(=O)(=O)c1nn2cc(-c3ccc(OCCO)cc3)nc2s1` [Compound 26], the IC50 stood at 23 µM in the series with SCG neurons [1] (Rattus norvegicus, Neuron) and 7 µM with SCG neurons [2] (Rattus norvegicus, Neuron).

`NS(=O)(=O)c1nn2cc(-c3ccc(-c4ccccc4)cc3)nc2s1` [Compound 72, 6-(Biphenyl)imidazo[2,1-b]-1,3,4-thiadiazole-2-sulfonamide]: the IC50 was 17 µM with SCG neurons [1] (Rattus norvegicus, Neuron); 10 µM in the series with SCG neurons [2] (Rattus norvegicus, Neuron); 1.61 µM and 2.19 µM on CA II.

Consider `NS(=O)(=O)c1nn2cc(-c3ccc(-c4ccc(CO)cc4)cc3)nc2s1` [Compound 74, 6-(4-(hydroxymethylphenyl)phenyl)imidazo[2,1-b]-1,3,4-thiadiazole-2-sulfonamide], for which the IC50 in the series on SCG neurons [1] (Rattus norvegicus, Neuron) came to 20 µM; with SCG neurons [2] (Rattus norvegicus, Neuron), 7 µM; on CA II, 1.68 µM.

Turning to `COc1ccccc1-c1ccc(-c2cn3nc(S(N)(=O)=O)sc3n2)cc1` [Compound 75, 6-(4-(2-methoxyphenyl)phenyl)imidazo[2,1-b]-1,3,4-thiadiazole-2-sulfonamide], the IC50 in the series on SCG neurons [1] (Rattus norvegicus, Neuron) was 10 µM; with SCG neurons [2] (Rattus norvegicus, Neuron), 5 µM; on CA II, 0.441 µM.

Regarding `COc1cccc(-c2ccc(-c3cn4nc(S(N)(=O)=O)sc4n3)cc2)c1` [Compound 76, 6-(4-(3-methoxyphenyl)phenyl)imidazo[2,1-b]-1,3,4-thiadiazole-2-sulfonamide], the IC50 is 5 µM in the series with SCG neurons [1] (Rattus norvegicus, Neuron); 2 µM in the series on SCG neurons [2] (Rattus norvegicus, Neuron); 0.526 µM on CA II. Further, the “functional recovery after sciatic nerve crush” value in the series on sciatic nerve is “improved recovery”. Also, in the series with sciatic nerve (versus vehicle control), the “recovery in toe spread area (inner toe spread)” value was “induced increased recovery”. The “annexin V positive (apoptotic) cells” value in the series on cortical neurons was “prevents the occurrence of annex in V stained cells; also recorded: prevented the appearance of annexinV positive cells”.

With `NS(=O)(=O)c1nn2cc(-c3ccc(-c4cccc(C(F)(F)F)c4)cc3)nc2s1` [Compound 81, 6-(4-(3-trifluoromethylphenyl)phenyl)imidazo[2,1-b]-1,3,4-thiadiazole-2-sulfonamide], the IC50 was 5 µM with SCG neurons [1] (Rattus norvegicus, Neuron); 3 µM in the series on SCG neurons [2] (Rattus norvegicus, Neuron); 1.58 µM at CA II.

On to `NS(=O)(=O)c1nn2cc(-c3ccc(-c4ccc(C(F)(F)F)cc4)cc3)nc2s1` [Compound 82, 6-(4-(4-trifluoromethylphenyl)phenyl)imidazo[2,1-b]-1,3,4-thiadiazole-2-sulfonamide], for which the IC50 in the series with SCG neurons [1] (Rattus norvegicus, Neuron) worked out at 25 µM; in the series on SCG neurons [2] (Rattus norvegicus, Neuron) it was 2 µM; at CA II, 5.43 µM.

As to `NS(=O)(=O)c1nn2cc(-c3ccc(Oc4ccccc4)cc3)nc2s1` [Compound 87, 6-(4-phenoxyphenyl)imidazo[2,1-b]-1,3,4-thiadiazole-2-sulfonamide], the IC50 with SCG neurons [1] (Rattus norvegicus, Neuron) is 10 µM; in the series on SCG neurons [2] (Rattus norvegicus, Neuron) it was 5 µM; on CA II, 0.128 µM.

With `NS(=O)(=O)c1nn2cc(-c3ccc(Oc4ccc([N+](=O)[O-])cc4)cc3)nc2s1` [Compound 99, 6-(4-(4-nitrophenoxy)phenyl)imidazo[2,1-b]-1,3,4-thiadiazole-2-sulfonamide], the IC50 came out at 7 µM in the series on SCG neurons [1] (Rattus norvegicus, Neuron); 2 µM in the series with SCG neurons [2] (Rattus norvegicus, Neuron); 0.914 µM on CA II.

In the case of `NS(=O)(=O)c1nn2cc(-c3cc4ccccc4o3)nc2s1` [Compound 111, 6-(Benzo[b]furan-2-yl)imidazo[2,1-b]-1,3,4-thiadiazole-2-sulfonamide], the IC50 in the series on SCG neurons [1] (Rattus norvegicus, Neuron) was determined as 7 µM; in the series on SCG neurons [2] (Rattus norvegicus, Neuron), 2 µM; on CA II it was 53.2 µM. The “functional recovery after sciatic nerve crush” value in the series on sciatic nerve is given as “improved recovery”.

For `NS(=O)(=O)c1nn2cc(-c3ccc(-c4cccc(C(F)(F)F)c4)cc3)nc2s1` [Compound 150, 6-(3′-trifluoromethylbiphen-4-yl)imidazo[2,1-b]-1,3,4-thiadiazole-2-sulfonamide sodium salt], the IC50 in the series with SCG neurons [1] (Rattus norvegicus, Neuron, 48 h) is 7 µM.

On to `CC(=O)O[C@H]1C(=O)[C@@]2(C)[C@H]([C@H](OC(=O)c3ccccc3)[C@]3(O)C[C@H](OC(=O)[C@H](O)[C@@H](NC(=O)c4ccccc4)c4ccccc4)C(C)=C1C3(C)C)[C@]1(OC(C)=O)CO[C@@H]1C[C@@H]2O` [Taxol™, reference compound], for which, in the series with Sprague Dawley rats, the “reduction in foot-pad contact as compared to control animals” value is given as 46% and the “weight gain over a thirteen day period” value is recorded as “no weight gain”.

In the case of `CC[C@]1(O)C[C@H]2CN(CCc3c([nH]c4ccccc34)[C@@](C(=O)OC)(c3cc4c(cc3OC)N(C=O)[C@H]3[C@@](O)(C(=O)OC)[C@H](OC(C)=O)[C@]5(CC)C=CCN6CC[C@]43[C@@H]65)C2)C1` [vincristine, reference compound], the “apoptosis of cultured SCG neurons” value in the series with SCG neurons [3] is not below 80%.
